Where two headings read alike, the source gives them in different places.
Key:
[1] = test system: lymphoblastoid cell lines of ASD phenotype 1 patients; experiment: Biolog Phenotype Mammalian MicroArray (PM-M) NADH/energy production, phenotype 1 cells; format: cell-based, human; settings: cells exposed to the substance; AUC (Figure 1) and endpoint absorbance (Table 1)
Description: From all subjects, blood samples were collected and lymphoblastoid cell lines generated. Briefly, tubes containing anticoagulant citrate dextrose (ACD) were used to collect blood samples via venipuncture, in order to ensure that the blood cells remained metabolically active. The tubes were kept at room temperature and processed within 24 hours.
Cell lines were obtained by immortalization of lymphocytes from blood samples using Epstein-Barr virus.
Energy production of cells was measured using commercially available Phenotype Mammalian MicroArrays (PM-Ms, Biolog, Hayward, Calif., USA).
The compound in each well was designed to be used by the cells, either as the sole energy source or as the metabolic effector influencing the utilization of an energy source (α-D-glucose) added in the cell suspension. […] Before plating, cell viability and number were assessed utilizing a BioRad cell counter and a trypan blue dye. The concentration of live cells required for plating was 4×10^5 cells/mL, corresponding to 20,000 cells per well in a volume of 50 μL. […] Cells were incubated for 48 h at 37° C. in 5% CO2, using the modified Biolog IF-M1 medium.
The Biolog IF-M1 medium was modified for plates PM-M1 to M4 by adding the following to 100 mL of Biolog IF-M1: 1.1 mL of 100× penicillin/streptomycin solution, 0.16 mL of 200 mM glutamine (final concentration 0.3 mM), and 5.3 mL of Fetal Bovine Serum (FBS, final concentration 5%). For plates PM-M5 to M8, 5.5 mM α-D-glucose will be added in place of FBS.
During the 48-hour incubation, the only energy source the cells had was the chemical in the well. After this first incubation, Biolog Redox Dye Mix MB was added (10 μL/well) and the plates were incubated under the same conditions for an additional 24 hours. As the cells metabolized the energy source, tetrazolium dye in the media was reduced, producing a purple color according to the amount of NADH generated.
For the last 24 hours of the experiment, the plates were incubated in the Omnilog system, which collects optical density readings every 15 minutes, generating 96 data-points for each well. The system also elaborated the kinetic curve for the metabolic reaction in each well and extrapolated parameters such as slope, highest point, endpoint, area under the curve (AUC), and lag.
At the end of the 24-hour incubation, the plates were analyzed utilizing a microplate reader with readings at 590 and 750 nm. The first value (A590) indicated the highest absorbance peak of the redox dye and the second value (A750) gave a measure of the background noise. The relative absorbance (A590-750) was calculated per well.

[2] = test system: ASD phenotype 1 patients; experiment: Nrf2-activator challenge test, ASD phenotype 1 patients (ADI-R, CGI-S, CGI-I); format: in vivo, human; settings: selected patient cohort
Description: (§1) The effects of sulforaphane containing Broccoli sprout extract was observed and quantified in 7 individuals suffering from ASD and previously classified as either phenotype 1 or phenotype 2 patients.
The extract was prepared from selected broccoli seeds known to have high yield of sulforaphane which were surface-disinfected and grown (sprouted) for 3 days in a commercial sprouting facility under controlled light and moisture conditions.

[3] = test system: ASD phenotype 2 patients; settings: wording of CGI-I rating
Description: as §1
We describe a procedure consisting of an evaluation of patients with ASD prior and after administration of broccoli sprout extract. The extract was prepared from selected broccoli seeds known to have high yield of sulforaphane which were surface-disinfected and grown (sprouted) for 3 days in a commercial sprouting facility under controlled light and moisture conditions. A boiling water extract was prepared, filtered, cooled, and treated with the enzyme myrosinase (from daikon sprouts) to convert precursor glucosinolates to isothiocyanates. Behavioral evaluation of patients was performed prior, during and after administration of sulforaphane-containing broccoli sprout extract. Baseline evaluation of patients was performed using standard clinical endpoints (ADI-R subscales ADI-SI, ADI-C and ADI-RI).
Challenge regimen consisted of the administration of a Broccoli Sprout Extract dose corresponding to a total daily dosage of 4 μmol/kg of sulforaphane, administered in 3 doses over the course of the day. […]

With IL-1beta: Th1 cytokine the “NADH production of ASD phenotype 1 cells compared to TDs and non-phenotype 1 cells” value [1] was “significantly lower levels of NADH”.

For IL-6: Th1 cytokine, the “NADH production of ASD phenotype 1 cells compared to TDs and non-phenotype 1 cells” value [1] was “significantly lower levels of NADH”.

In the case of “FGF-1(aFGF): growth factor that selectively targets the PI3K-Akt-mTOR pathway”, the “NADH production of ASD phenotype 1 cells compared to TDs and non-phenotype 1 cells” value [1] is reported as “significantly reduced production of NADH”.

For “PDGF-AB: platelet-derived growth factor AB”, the “NADH production of ASD phenotype 1 cells compared to TDs and non-phenotype 1 cells” value [1] was “no significant differences”.

IGF-I: insulin-like growth factor 1 was tested, and the “NADH production of ASD phenotype 1 cells compared to TDs and non-phenotype 1 cells” value [1] was “no significant differences”.

For “hGH(Somatotropin): growth factor that selectively targets the PI3K-Akt-mTOR pathway”, the “NADH production of ASD phenotype 1 cells compared to TDs and non-phenotype 1 cells” value [1] was “significantly reduced production of NADH”.

With C[S@@+]([O-])CCCCN=C=S [sulforaphane, 1-isothiocyanato-4R-(methylsulfinyl)butane] the “reduction of disease severity as measured through the ADI-R, SRS and GGI-S/CGI-I” value [2] was “not effective in reducing disease severity”, the Clinical significance ([3]; Example 4 Patient 1 (phenotype 2)) was “Very much improved” and the Clinical significance ([3]; Example 4 Patient 2 (phenotype 2)) was “Very much improved”.

Source: US11357871B2, “Challenge test for diagnosing subtypes of ASD” (Stalicla S.A., priority 2017, dated 2022)
